According to patent US20190352691A1, “PATHOGEN DETECTION” (priority 2013, published 2019):

Assays:
[1] = test system: A. baumannii ATCC 17691; conditions: cited from earlier work
[2] = test system: Mtb; test: anti-tuberculosis activity (whole cell); type: cell-based, Mycobacterium tuberculosis

| Compound | activity against Acinetobacter baumannii [1] | activity against tuberculosis [2] |
| --- | --- | --- |
| N[C@@H](C(=O)N[C@@H]1C(=O)N2C(C(=O)O)=C(Cl)CC[C@H]12)c1ccccc1 [Lorabid] | not active |  |
| C[C@@H]1CC[C@H]2[C@@H](C)C(=O)O[C@@H]3O[C@@]4(C)CC[C@@H]1[C@]32OO4 [artemisinin] |  | not active |
